From patent publication US20090074885A1, “Reversible Hydrophobic Modification of Drugs for Improved Delivery to Cells” (Roche Madison Inc., priority 2003, published 2009)

What was measured:
hepatocytes = test: Uptake by hepatocytes in vivo after intraportal injection (occluded blood flow); set-up: species or system mouse; conditions: normal liver, portal vein injection; for cells (hepatocytes) PI positive: 0.300 μmol
Protocol: Uptake of BDMODS-PI by hepatocytes in vivo. Intraportal injections were conducted in order to target hepatocytes. For the injections, both the portal vein and the celiac artery were clamped to occlude blood flow into the liver. The vena cava was not clamped in order to avoid increased pressure within the liver during the injection procedure. The blood in the liver was flushed out with 1 ml of ITG delivered through the portal vein (1 min). 0.300 μmol PI or II in 40 μl of DMF was then delivered together with 400 μl ITG via the mixing chamber. 5 min after injection the livers were perfused with 3 ml of ITG to flush any drug remaining in the vasculature, and livers were sectioned as above or the hepatocytes were isolated. Slides were prepared from the resulting hepatocyte isolations for examination by fluorescent microscopy (Axioplan2 fluorescent microscope in the fluorescein fluorescent channel (λex=BP 546/90, λem=LP 515 nm filter set) due to signal intensity, magnification=400×, Zeiss) by placing a drop of the cell suspension (about 20 μl) on a clean glass slide and preparing a cell smear. Random fields were examined, and the number of positive cells was counted out of a total of 200 cells in order to determine the percentage of PI positive cells in the sample.
The amount of PI retained in hepatocytes was also quantitated following intraportal injections of PI and II. The isolated hepatocyte cell suspensions were dissolved in 0.5% octyl glycoside in 10 mM HEPES buffer, pH 7.5. Nucleic acid was then isolated from cell suspensions (0.5 ml) using phenol extraction. PI fluorescence spectra were monitored (Shimadzu RF 1501 Spectrophotometer) using an excitation wavelength of 530 nm and an emission wavelength of 617 nm. All spectra were background subtracted using the fluorescence of cell suspensions from untreated animals. PI calibration curves were generated by mixing increasing amounts of PI in each of the samples. […] The amount of PI uptake was then calculated according to the equation: Amt(%)=100×PIs/PIi, where PIs is the amount of PI in the cell suspension and PIi is the amount of PI or BDMOD-PI injected (corrected for the sample size relative to the total liver).

[1] = Qualitative 90° light scattering for particles; assay type: physicochemical; conditions: relative to ITG or PI in ITG
Protocol: Light Scattering analysis of prodrugs. Particle size was determined by dynamic light scattering on a Zeta Plus (Zeta Potential Analyzer, Brookhaven Instrument Corporation, λ 533 nm, 90°), and results are reported as the size of the most abundant particle (range of particle sizes, counts sec^−1). Fluorescent compounds were also analyzed for particles qualitatively, by measuring for light scattering on a Cary Eclipse Fluorescence Spectrophotometer (Varian Inc.), with λex=λem (300-800 nm, 90° detection). The presence of particles in solution results in an increase in signal detection at 90°. PI and RRH-PI prodrugs were 7.48 mM in DMSO. Melphalan and V were 50 mM in DMSO. The drug/prodrug solutions were mixed and diluted with ITG through the mixing chamber (40 μl OS and 400 μl ITG), and analyzed immediately.

[2] = system: Jurkat (human T-lymphocyte) cells; test: In vitro cellular uptake by fluorescence microscopy, Jurkat; assay type: cell-based; conditions: FIG. 5B
Protocol: In Vitro cellular uptake of PI, RRH-PI compounds, and IV evaluated by fluorescence measurements. […] Adherent cells were plated at 2.5×10^5 cells/well on 6-well plates 24 h prior to testing. The growth media was removed from individual wells and the drug/prodrug was immediately added to the well with the mixing chamber. […] After 30 sec the drug solution was removed (aspirated) and 2 ml complete media was added to the cells. Experiments conducted with prodrug that was hydrolyzed prior to application to the cells followed a similar protocol, however the combined solution obtained after passing through the mixing chamber was collected and allowed to sit at ambient temperature for 5 min prior to application on the cells. Experiments conducted with Calcein AM (Invitrogen, 100 μl of 20 μM solution in complete media) followed a similar protocol for drug treatment (4 min treatment). Experiments conducted with SYTOX Green (Invitrogen) followed a similar protocol for drug treatment. […] Each condition was repeated in 2 or 3 wells, and the cells were immediately examined by microscopy. Fluorescent microscopy studies were conducted with a three laser LSM 510 confocal microscope, an Axiovert S100 fluorescent microscope, or an Axioplan2 fluorescent microscope (all Zeiss) equipped with filter sets for the rhodamine fluorescence channel (λex=BP 450/12, λem=LP 590 nm filter set) and the fluorescein fluorescent channel (λex=BP 546/90, λem=LP 515 nm filter set). Imaging was performed with an AxioCam digital camera (Zeiss), with AxioVision imaging software (V 4.5, Zeiss). For all images, identical camera settings and exposure times were used on comparative sample and control images. Images were processed with Photoshop (Adobe) for level and brightness using identical settings between sample and control images. For experiments conducted on Jurkat cells (8.0×10^5 cells/ml in media), the cells were isolated by centrifugation and resuspended in ITG at a density of 4.0×10^6 cells/ml. Exposure to the drug/prodrug was conducted by passing the cells in suspension in ITG (200 μl) through the mixing chamber. […]

[3] = system: rapidly dividing hepatocytes; test: Mitosis of hepatocytes after 70% partial hepatectomy and portal vein delivery; assay type: in vivo, ICR mice; conditions: 2 days after treatment, 0.150 μmol intraportal
Protocol: Delivery of RRH-PI to rapidly dividing cells results in a decrease in the number of cells in mitosis. […] Following the hepatectomy, PI or III (0.150 μmol, 220 μl total injection volume) were delivered to the liver via the portal vein using the mixing chamber. The abdominal cavity was closed in two layers with 4-0 Braunamid suture. After 48 h, the animals were sacrificed, the livers were harvested, formalin fixed, paraffin imbedded, sectioned, and H&E stained. […] Results are reported as the percentage of cells in metaphase (±standard deviation).

| Compound | injected PI bound to hepatocyte nucleic acid (hepatocytes) [%] | cells (hepatocytes) PI positive (hepatocytes) | increase in 90° light scattering signal intensity [1] | cells stained [2] [%] | cellular uptake and staining [2] | hepatocytes in metaphase [3] [%] |
| --- | --- | --- | --- | --- | --- | --- |
| CCCCCCCCCCCCCCCCCC[Si](C)(C)Nc1ccc2c(c1)c(-c1ccccc1)[n+](CCC[N+](C)(CC)CC)c1cc(N[Si](C)(C)CCCCCCCCCCCCCCCCCC)ccc21.[I-].[I-] [II, 3,8-bis[((dimethyl)octadecylsilazyl)amine] 5-(3,3-diethyl-3-methylammoniumpropyl) 6-phenyl phenanthridinium diiodide] | 14 | approximately 70% | maximum two fold increase |  |  |  |
| CCCCCCCCCCCCNC(=O)CCC(=CCC(=O)O)C(=O)Nc1ccc2c(c1)c(-c1ccccc1)[n+](CCC[N+](C)(CC)CC)c1cc(NC(=O)C(=CCC(=O)O)CCC(=O)NCCCCCCCCCCCC)ccc21.[I-].[I-] [III, 3,8-bis-[2-(2 carboxyethylidene)-4-(dodecarbamoyl)-1-oxo-butylamine] 5-(3,3-diethyl-3-methylammoniumpropyl) 6-phenyl phenanthridinium diiodide] |  |  | maximum two fold increase | ~100 | strong cellular uptake and staining | 2.3 |
| CC[N+](C)(CC)CCC[n+]1c(-c2ccccc2)c2cc(N)ccc2c2ccc(N)cc21.[I-].[I-] [PI, Propidium iodide, reference compound] | 1.2 | approximately 1% |  |  | stained very few cells | 7.0 |
